# Measurements reported in patent US20260256792A1, “TREATMENT OF CHRONIC SPONTANEOUS URTICARIA BY ADMINISTERING (R)-2-[3-[4-AMINO-3-(2-FLUORO-4-PHENOXY-PHENYL)PYRAZOLO[3,4-D]PYRIMIDIN-1-YL]PIPERIDINE-1-CARBONYL]-4-METHYL-4-[4-(OXETAN-3-YL)PIPERAZIN-1-YL]PENT-2-ENENITRILE” (priority 2023, published 2026).
# Test system: moderate-to-severe chronic spontaneous urticaria (CSU)
# Assay: Phase 2 CSU study: urticaria activity score over 7 days (UAS7)
# Format: in vivo, human
# Conditions: Omalizumab-naïve, 400 mg TID
# Description: The study comprises a 12 week, randomized, double-blind, placebo-controlled, multi-center, dose-ranging efficacy and safety phase, followed by a 40 week open label extension (OLE) phase (see FIG. 1). The study consists of three phases and an optional OLE phase. […] Clinically, CSU is characterized by the spontaneous and recurrent appearance of pruritic hives. The proposed primary endpoints were the UAS7 at Week 12 in EU and EU reference countries and the ISS7 in the US. Regardless of where a participant was from, all assessments were the same. The UAS7 score is a composite score containing both the HSS7 and the ISS7. This allowed a global assessment of the two key components of urticaria: hives and itch. […] The UAS is a validated PRO measure. […] The daily UAS scores range from 0 to 6 point/day. […] Patients were to complete the UAS using the e-diary. […] The following secondary endpoints were to be analyzed using the same approach as for the primary endpoint: • Change from baseline in UAS7 at Week 4 • Change from baseline in UAS7 at Week 12 (for US and US reference countries) • Change from baseline in ISS7 at Week 12 (except US and US reference countries) • Change from baseline in HSS7 at Week 12 The following responder secondary endpoints were to be analyzed using the Cochran-Mantel-Haenszel test adjusted by region: • Proportion of participants with UAS7<6 at Week 12 • Proportion of participants with UAS7=0 at Week 12 Participants who received selected prohibited medications and/or rescue medications were to be considered as non-responders for time points after the medication usage. For other participants, all available data including those collected during the off-treatment period were to be used to determine the responder/non-responder status. Missing data were to be considered as non-responders.
smiles,measurement,setting,value
"CC(C)(C=C(C#N)C(=O)N1CCC[C@@H](n2nc(-c3ccc(Oc4ccccc4)cc3F)c3c(N)ncnc32)C1)N1CCN(C2COC2)CC1 [rilzabrutinib, (R)-2-[3-[4-amino-3-(2-fluoro-4-phenoxy-phenyl)pyrazolo[3,4-d]pyrimidin-1-yl]piperidine-1-carbonyl]-4-methyl-4-[4-(oxetan-3-yl)piperazin-1-yl]pent-2-enenitrile]","Imputed non-responder n (%), UAS7 = 0",Week 3,0 n (%)
same,"Imputed non-responder n (%), UAS7 ≤6",Week 3,0 n (%)
same,"Non-responder n (%), UAS7 = 0",Week 3,32 (91.4) n (%)
same,"Non-responder n (%), UAS7 ≤6",Week 3,27 (77.1) n (%)
same,"OR for rilzabrutinib vs. placebo, UAS7 = 0",Week 3,3.625
same,"OR for rilzabrutinib vs. placebo, UAS7 ≤6",Week 3,3.239
same,"RRD (%) for rilzabrutinib vs. placebo, UAS7 = 0",Week 3,5.8 %
same,"RRD (%) for rilzabrutinib vs. placebo, UAS7 ≤6",Week 3,13.6 %
same,"Responder n (%), UAS7 = 0",Week 3,3 (8.6) n (%)
same,"Responder n (%), UAS7 ≤6",Week 3,8 (22.9) n (%)
same,"Imputed non-responder n (%), UAS7 = 0",Week 4,3 (8.6) n (%)
same,"Imputed non-responder n (%), UAS7 ≤6",Week 4,3 (8.6) n (%)
same,"Non-responder n (%), UAS7 = 0",Week 4,32 (91.4) n (%)
same,"Non-responder n (%), UAS7 ≤6",Week 4,30 (85.7) n (%)
same,"OR for rilzabrutinib vs. placebo, UAS7 = 0",Week 4,1.460
same,"OR for rilzabrutinib vs. placebo, UAS7 ≤6",Week 4,1.185
same,"RRD (%) for rilzabrutinib vs. placebo, UAS7 = 0",Week 4,2.5 %
same,"RRD (%) for rilzabrutinib vs. placebo, UAS7 ≤6",Week 4,1.8 %
same,"Responder n (%), UAS7 = 0",Week 4,3 (8.6) n (%)
same,"Responder n (%), UAS7 ≤6",Week 4,5 (14.3) n (%)
same,"Imputed non-responder n (%), UAS7 = 0",Week 5,2 (5.7) n (%)
same,"Imputed non-responder n (%), UAS7 ≤6",Week 5,2 (5.7) n (%)
same,"Non-responder n (%), UAS7 = 0",Week 5,29 (82.9) n (%)
same,"Non-responder n (%), UAS7 ≤6",Week 5,25 (71.4) n (%)
same,"OR for rilzabrutinib vs. placebo, UAS7 = 0",Week 5,6.971
same,"OR for rilzabrutinib vs. placebo, UAS7 ≤6",Week 5,5.923
same,"RRD (%) for rilzabrutinib vs. placebo, UAS7 = 0",Week 5,13.2 %
same,"RRD (%) for rilzabrutinib vs. placebo, UAS7 ≤6",Week 5,19.7 %
same,"Responder n (%), UAS7 = 0",Week 5,6 (17.1) n (%)
same,"Responder n (%), UAS7 ≤6",Week 5,10 (28.6) n (%)
same,"Imputed non-responder n (%), UAS7 = 0",Week 6,4 (11.4) n (%)
same,"Imputed non-responder n (%), UAS7 ≤6",Week 6,4 (11.4) n (%)
same,"Non-responder n (%), UAS7 = 0",Week 6,28 (80.0) n (%)
same,"Non-responder n (%), UAS7 ≤6",Week 6,27 (77.1) n (%)
same,"OR for rilzabrutinib vs. placebo, UAS7 = 0",Week 6,8.082
same,"OR for rilzabrutinib vs. placebo, UAS7 ≤6",Week 6,1.274
same,"RRD (%) for rilzabrutinib vs. placebo, UAS7 = 0",Week 6,15.6 %
same,"RRD (%) for rilzabrutinib vs. placebo, UAS7 ≤6",Week 6,3.7 %
same,"Responder n (%), UAS7 = 0",Week 6,7 (20.0) n (%)
same,"Responder n (%), UAS7 ≤6",Week 6,8 (22.9) n (%)
same,"Imputed non-responder n (%), UAS7 = 0",Week 7,5 (14.3) n (%)
same,"Imputed non-responder n (%), UAS7 ≤6",Week 7,5 (14.3) n (%)
same,"Non-responder n (%), UAS7 = 0",Week 7,32 (91.4) n (%)
same,"Non-responder n (%), UAS7 ≤6",Week 7,26 (74.3) n (%)
same,"OR for rilzabrutinib vs. placebo, UAS7 = 0",Week 7,3.625
same,"OR for rilzabrutinib vs. placebo, UAS7 ≤6",Week 7,2.685
same,"RRD (%) for rilzabrutinib vs. placebo, UAS7 = 0",Week 7,5.8 %
same,"RRD (%) for rilzabrutinib vs. placebo, UAS7 ≤6",Week 7,13.4 %
same,"Responder n (%), UAS7 = 0",Week 7,3 (8.6) n (%)
same,"Responder n (%), UAS7 ≤6",Week 7,9 (25.7) n (%)
same,"Imputed non-responder n (%), UAS7 = 0",Week 8,7 (20.0) n (%)
same,"Imputed non-responder n (%), UAS7 ≤6",Week 8,7 (20.0) n (%)
same,"Non-responder n (%), UAS7 = 0",Week 8,32 (91.4) n (%)
same,"Non-responder n (%), UAS7 ≤6",Week 8,26 (74.3) n (%)
same,"OR for rilzabrutinib vs. placebo, UAS7 = 0",Week 8,1.351
same,"OR for rilzabrutinib vs. placebo, UAS7 ≤6",Week 8,1.513
same,"RRD (%) for rilzabrutinib vs. placebo, UAS7 = 0",Week 8,1.9 %
same,"RRD (%) for rilzabrutinib vs. placebo, UAS7 ≤6",Week 8,6.3 %
same,"Responder n (%), UAS7 = 0",Week 8,3 (8.6) n (%)
same,"Responder n (%), UAS7 ≤6",Week 8,9 (25.7) n (%)
same,"Imputed non-responder n (%), UAS7 = 0",Week 9,6 (17.1) n (%)
same,"Imputed non-responder n (%), UAS7 ≤6",Week 9,6 (17.1) n (%)
same,"Non-responder n (%), UAS7 = 0",Week 9,32 (91.4) n (%)
same,"Non-responder n (%), UAS7 ≤6",Week 9,24 (68.6) n (%)
same,"OR for rilzabrutinib vs. placebo, UAS7 = 0",Week 9,0.893
same,"OR for rilzabrutinib vs. placebo, UAS7 ≤6",Week 9,3.358
